Laboratory results from paper PMC12135066, “Design and Preclinical Evaluation of Novel uPAR-Targeting Radiopeptides Modified with an Albumin-Binding Entity” (Molecular Pharmaceutics, 2025).
Each block holds one compound with its values, some of them ahead of it.

What was measured:
[1] = system: human serum albumin (HSA); experiment: Albumin-binding properties in human blood plasma (ultrafiltration assay); conditions: for Relative albumin-binding affinity, human blood plasma: ultrafiltration (Amicon, 10 kDa), human blood plasma dilutions in PBS pH 7.4, [HSA]-to-[radiopeptide] 0.01–20000, 0.006 nmol, 37 °C 30 min, γ-counter, inverse ratio of B50, [177Lu]Lu-uPAR-01 set as 1.00, average curve of 3 experiments
Experimental: The relative albumin-binding affinities of the radiopeptides in mouse and human blood plasma were determined using an ultrafiltration assay with Amicon centrifugal filters (cutoff of 10 kDa; Merck Millipore), as previously reported (Supporting Information). A fixed amount of the respective radiopeptide (15 μL, ∼300 kBq, 0.006 nmol) was added to a defined volume (150 μL) of mouse and human blood plasma dilutions to obtain [mouse serum albumin (MSA)]-to-[radiopeptide] and [human serum albumin (HSA)]-to-[radiopeptide] molar concentration ratios of 0.01–12,500 and 0.01–20,000, respectively. The data were analyzed using a semilogarithmic Hill plot with the maximum binding set as 100% (GraphPad Prism software, version 8.3.1).
Determination of the Albumin-Binding Properties
Purpose: The radiopeptides were investigated with regard to their albumin-binding capabilities in vitro
as a measure to predict blood retention in vivo.
Methods: The relative albumin-binding affinity of the radiopeptides in mouse blood plasma (Rockland
Immunochemicals, Inc., U.S.A.) and human blood plasma (Stiftung Blutspende SRK Aargau-
Solothurn, Switzerland) were determined using an ultrafiltration method. The amount of mouse serum
albumin (MSA) and human serum albumin (HSA) in mouse and human blood plasma was defined as
550 μM and 800 μM, respectively, based on measurements using a dry chemistry analyzer (DRI-CHEM
4000i, FUJIFILM, Japan). A fixed amount of radiopeptide (50 MBq/nmol, ~300 kBq, 15 μL, 0.006
nmol) was added to a defined volume (150 μL) of mouse and human blood plasma and various dilutions
thereof in PBS pH 7.4, resulting in defined [MSA]-to-[radiopeptide] or [HSA]-to-[radiopeptide] molar
concentration ratios ranging from 0.01 ‒12500 and 0.01‒20000, respectively, followed by incubation of
the samples at 37 °C for 30 min. Ice-cold PBS (150 µL, pH 7.4) was added before loading the blood
plasma samples on Amicon centrifugal filters (cut -off of 10 kDa; Merck Millipore) followed by
centrifugation (14000 rcf, 30 min, 4 °C) to allow the separation of the plasma protein -bound from the
plasma-unbound (free) fractions of each sample. The inserts of the filter devices were inverted and centrifuged at 200 rcf for 3 min to recover the protein -bound radiopeptide. The activity in the filtrate
and filter unit was measured in a γ-counter (1480 Wizard, PerkinElmer) and the counts were combined
assuming that the fraction retained in the filter membrane was not bound to proteins. The protein -bound
fraction was expressed as percentage of the whole activity (i.e. plasma protein -bound activity, activity
measured in the filtrate and activity measured in the filter (set as 100%) ). The data were analyzed using
a semi-logarithmic plot assuming a maximum binding of 100%. The Hill equation was fitted to the data
points and the half -maximum binding ( B50) based on the average curve obtained from three independent
experiments (GraphPad Prism software, version 8.3 .1). The relative albumin-binding affinit ies of the
reference compound, whose relative binding affinity was set as 1.0. The results were presented as the
B50 value obtained from the average curve from 3 independent experiments.

[2] = Stability of the radiopeptides in mouse blood plasma; conditions: mouse; for remaining at 1 h, 10 MBq/200 µL / remaining at 24 h, 10 MBq/200 µL: blood plasma; for remaining at 4 h, 10 MBq/200 µL: mouse blood plasma
Experimental: (§1) The radiopeptides (50 MBq/nmol) stabilized with L-ascorbic acid were diluted in mouse and human blood plasma and incubated at 37 °C. Aliquots were taken after 1, 4, and 24 h and analyzed using reversed-phase thin-layer chromatography (TLC) (Supporting Information).
(§2) aProduct peak expressed as percentage of the sum of integrated peak areas of the entire chromatogram relative to
(§3) the value obtained immediately after labeling (set as 100%), average ± standard deviation (SD) (n=3).
(§4) Stability of the Radiopeptides in Mouse and Human Blood Plasma
(§5) Purpose: The stability of the radiopeptides was assessed in mouse and human blood plasma as an
indication for their in vivo stability.
(§6) Methods: The radiopeptides (50 MBq/nmol) stabilized with L-ascorbic acid were diluted in mouse
(§7) blood plasma (Lot: 32321, Rockland Immunochemicals Inc., U.S.A.) or in human blood plasma
(§8) (Stiftung Blutspende SRK Aargau -Solothurn, Switzerland) at a concentration of 10 MBq/200 µL and
(§9) incubated at 37 °C over a 24 h time period. Control samples were prepared by diluting the radiopeptides
(§10) in saline at the same activity concentration. Aliquots of each dilution were taken after 1 h, 4 h, and 24 h
(§11) (2 µL, ~100 kBq) and investigated employing thin layer chromatography (TLC) methods on reversed-
(§12) phase TLC plates (MERCK Analytical Chromatography, TLC Silica gel 60 RP -18 F254s) as stationary
(§13) phase and a 3/7 (v/v) mixture of acetonitrile /citrate buffer (0.1 M, pH 5.5) as mobile phase. A dilution
(§14) of [177Lu]LuCl3/HCl 0.04 M (10 MBq/200 µL) was added on each TLC plate. The developed and dried
(§15) TLC plates were exposed to a phosphor screen (Super resolution screen PSR10450013, PerkinElmer)
(§16) for 1 min. The screen was read with a Cyclone Plus phosphor imager (PerkinElmer) and the peak
(§17) quantification was performed using OptiQuant Software (version 5.0).

[3] = Radiolytic stability of the radiopeptides in saline with L-ascorbic acid; conditions: 50 MBq/nmol in saline, 150 MBq/300 µL, L-ascorbic acid (3 mg, 20 µL) and NaOAc (0.5 M, 30 µL), HPLC, product peak relative to t=0 (100%), average ± SD, n=3
Experimental: The radiolytic stability of the radiopeptides (50 MBq/nmol) in saline (150 MBq/300 μL) was assessed in the absence and presence of L-ascorbic acid (3 mg added in a volume of 20 μL). After an incubation period of 1, 4, and 24 h, aliquots of the solutions were analyzed using HPLC. The integrated peak area representing the intact radiopeptide was expressed as the percentage of the sum of all peaks of the chromatogram. The final amount of intact radiopeptide was expressed as the percentage of the product peak obtained at t = 0, which was set as 100% (Supporting Information).
The radiolytic stability of [177Lu]Lu-DOTA-AE105 and the new 177Lu-labeled uPAR-targeting
radiopeptides (50 MBq/nmol) was assessed in vitro in the formulated solution . The radiopeptide s were
diluted in saline to obtain an activity concentration of 150 MBq in 300 µL in the presence of L-ascorbic
acid (3 mg, 20 µL) and NaOAc (0.5 M, 30 µL) to compensate for the acidic pH. Aliquots of the dilutions
were analyzed using HPLC after incubation periods of 1 h, 4 h and 24 h . The integrated peak area
measured for the intact radioligand peak was expressed as the percentage of the sum of the integrated
peak areas of each peak present in the chromatogram. The final amount of intact radiopeptide at t = 1 h,
4 h and 24 h was expressed by correcting the obtained percentage of the product peak to this peak
obtained at t = 0, which was set as 100%.

[4] = Stability of the radiopeptides in human blood plasma; conditions: human; for remaining at 1 h, 10 MBq/200 µL / remaining at 24 h, 10 MBq/200 µL: blood plasma; for remaining at 4 h, 10 MBq/200 µL: human blood plasma
Experimental: as §1, §2, §3, §4, §5
indication for their in vivo stability.
as §6, §7, §8, §9, §10, §11, §12, §13, §14, §15, §16, §17

[5] = n-Octanol/PBS distribution coefficients (logD values); conditions: n-octanol/PBS pH 7.4, pH 7.4
Experimental: The radiopeptides diluted in phosphate-buffered saline (PBS) pH 7.4 (25 μL, ∼0.5 MBq, 0.01 nmol) were added to a mixture of PBS pH 7.4 (1475 μL) and n-octanol (1500 μL). The vials were vortexed vigorously for 1 min, followed by centrifugation (560 rcf, 6 min) for phase separation. Aliquots were taken from each phase and measured in a γ-counter (1480 Wizard, PerkinElmer). The distribution coefficients were calculated as the logarithmic value of the ratio of counts per minute (cpm) measured in the n-octanol phase relative to the cpm measured in the PBS phase.
Methods: The logD value of all radiopeptides was determined in a mixture of n-octanol and phosphate
buffered saline (PBS) pH 7.4 using phase separation followed by liquid-liquid extraction.
polystyrene radioimmunoassay (RIA) tubes were prepared for each radiopeptide with 1.5 mL n-octanol
and 1.475 mL PBS pH 7.4. The RIA tubes were rigorously vortexed and subsequently let to stand so
that the phase separation could take place. The radiopeptides (50 MBq/nmol) were diluted with PBS
pH 7.4 to obtain an activity concentration of 10 MBq/0.5 mL. A volume of 25 μL of these solutions
was added to each RIA tube (25 µL, ~0.5 MBq, 0.01 nmol) followed by vortexing for 1 min.
separation was achieved by centrifugation at 560 rcf for 6 min. The activity in the n-octanol and PBS
phase, respectively, was measured in a γ-counter (Wallac Wizard 1480, PerkinElmer).
coefficients were calculated as the logarithm of the ratio of counts per minute (cpm) measured in the n-
octanol phase relative to the cpm measured in the PBS pH 7.4 phase.
as described above three independent times for each radiopeptide.

human uPAR = molecular target: T1, human uPAR (Homo sapiens, UniProt Q03405); experiment: uPAR-binding affinity (KD values), saturation experiments with HEK-uPAR cells; conditions: saturation binding on HEK-uPAR cells, on ice (4 °C) 1 h, 1–1600 nM radiopeptide, ± AE105 40 µM; γ-counter; nonlinear regression; average ± SD, n=3
T1 construct: host or cells: HEK cells (HEK-uPAR)
T1 sequence (Q03405 23-335): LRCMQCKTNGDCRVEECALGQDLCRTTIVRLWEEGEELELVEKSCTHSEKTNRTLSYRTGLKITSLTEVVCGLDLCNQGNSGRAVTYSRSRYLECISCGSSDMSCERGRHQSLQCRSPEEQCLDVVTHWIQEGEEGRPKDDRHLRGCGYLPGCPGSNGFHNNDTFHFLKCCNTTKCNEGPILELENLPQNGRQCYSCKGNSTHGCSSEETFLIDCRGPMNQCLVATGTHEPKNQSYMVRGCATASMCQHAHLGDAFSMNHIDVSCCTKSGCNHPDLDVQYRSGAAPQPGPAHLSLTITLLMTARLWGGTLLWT
Method in brief: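 HEK-uPAR cells incubated 1 h at 4 °C (on ice) with radiopeptide at 1–1600 nM final, with or without 40 μM AE105 as blocker. Cell-bound activity counted in a γ-counter after NaOH lysis; KD from nonlinear regression of specific binding (total minus unspecific), mean ± SD of n = 3.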

[6] = system: HEK-uPAR xenograft-bearing nude mice; experiment: Biodistribution studies in HEK-uPAR xenograft-bearing nude mice; conditions: average ± SD, n=3 animals
Experimental: (§18) All applicable international, national, and/or institutional guidelines for the care and use of laboratory animals were followed, and the herein reported experiments were carried out according to the guidelines of the Swiss Regulations for Animal Welfare. The preclinical studies were ethically approved by the Cantonal Committee of Animal Experimentation and permitted by the responsible cantonal authorities (License No. 75721). Five-week-old female CD1/nude (Crl:CD1-Foxn ^ nu ) and female immunocompetent FVB (FVB/NCrl) mice were obtained from Charles River Laboratories (Sulzfeld, Germany). All mice were acclimatized for at least 7 days, receiving standard rodent chow ad libitum before being included in the reported studies. The CD1/nude mice were subcutaneously inoculated with HEK-uPAR cells (7 × 10^6 cells in 100 μL PBS) on the right shoulder. […] Typically, it took 3–11 weeks to reach xenograft volumes of 40–600 mm^3 at the time of testing the tissue distribution of the radiopeptides. The immunocompetent FVB mice were used for testing the in vivo stability of the radiopeptides.
(§19) The mice were injected with the radiopeptides (5 MBq, 0.5 nmol, 100 μL) in saline containing 0.05% BSA and sacrificed at 4 and 24 h after injection of the radiopeptides. Selected tissues and organs were collected, weighed, and measured with the γ-counter (1480 Wizard, PerkinElmer). […] A p-value of <0.05 was considered a statistically significant difference (GraphPad Prism software, version 8.3.1).
(§20) Decay-corrected data is shown as average ± SD of n = 3 animals of % injected activity per gram (IA/g) tissue.

[7] = as above; conditions: female, mouse, total radioactivity, 5 MBq, 0.5 nmol, decay-corrected, average ± SD, n=3 animals; for tissue uptake at 4 h: 4 h p.i.; for tissue uptake at 24 h: 24 h p.i.
Experimental: as §18, §19, §20

[8] = CD1/nude, HEK-uPAR xenograft, 5 MBq (0.5 nmol), HEK-uPAR xgft
[9] = CD1/nude, blood, 5 MBq (0.5 nmol)
[10] = CD1/nude, bone, 5 MBq (0.5 nmol)
[11] = CD1/nude, brain, 5 MBq (0.5 nmol)
[12] = CD1/nude, heart, 5 MBq (0.5 nmol)
[13] = CD1/nude, intestines, 5 MBq (0.5 nmol)
[14] = CD1/nude, kidneys, 5 MBq (0.5 nmol)
[15] = CD1/nude, liver, 5 MBq (0.5 nmol)
[16] = CD1/nude, lung, 5 MBq (0.5 nmol)
[17] = CD1/nude, muscle, 5 MBq (0.5 nmol)
[18] = CD1/nude, pancreas, 5 MBq (0.5 nmol)
[19] = CD1/nude, salivary glands, 5 MBq (0.5 nmol)
[20] = CD1/nude, spleen, 5 MBq (0.5 nmol)
[21] = CD1/nude, stomach, 5 MBq (0.5 nmol)

- Relative albumin-binding affinity, human blood plasma [1]: 1.07
- remaining at 1 h, 10 MBq/200 µL [2]: 101 ± 2%
- remaining at 24 h, 10 MBq/200 µL [2]: 98%
- remaining at 4 h, 10 MBq/200 µL [2]: 99 ± 3%
- radiolytic stability, % intact radiopeptide ([3]; 1 h): 99 ± 1%
- radiolytic stability, % intact radiopeptide ([3]; 4 h): 97 ± 2%
- radiolytic stability after 24 h, intact radiopeptide [%] [3]: 95 ± 2%
- remaining at 1 h, 10 MBq/200 µL [4]: 101 ± 3%
- remaining at 24 h, 10 MBq/200 µL [4]: 90 ± 5%
- remaining at 4 h, 10 MBq/200 µL [4]: 98 ± 2%
- logD [5]: -0.29
- Kd (human uPAR): 0.057 ± 0.021 µM
- Xenograft-to-blood ratio ([6]; 4 h p.i.): 0.28 ± 0.01
- Xenograft-to-kidney ratio ([6]; 4 h p.i.): 0.62 ± 0.01
- Xenograft-to-liver ratio ([6]; 4 h p.i.): 0.93 ± 0.08
- Xenograft-to-blood ratio ([6]; 24 h p.i.): 0.61 ± 0.09
- Xenograft-to-kidney ratio ([6]; 24 h p.i.): 0.73 ± 0.15
- Xenograft-to-liver ratio ([6]; 24 h p.i.): 1.4 ± 0.2
- tissue uptake at 4 h [7, 8]: 3.6 ± 0.2 %ID/g
- tissue uptake at 24 h [7, 8]: 4.3 ± 1.2 %ID/g
- tissue uptake at 4 h [7, 9]: 13 ± 1 %ID/g
- tissue uptake at 24 h [7, 9]: 7 ± 0.9 %ID/g
- tissue uptake at 4 h [7, 10]: 1.2 ± 0.1 %ID/g
- tissue uptake at 24 h [7, 10]: 0.85 ± 0.04 %ID/g
- tissue uptake at 4 h [7, 11]: 0.26 ± 0.02 %ID/g
- tissue uptake at 24 h [7, 11]: 0.14 ± 0.01 %ID/g
- tissue uptake at 4 h [7, 12]: 4.4 ± 0.6 %ID/g
- tissue uptake at 24 h [7, 12]: 3 ± 0.3 %ID/g
- tissue uptake at 4 h [7, 13]: 1.6 ± 0.1 %ID/g
- tissue uptake at 24 h [7, 13]: 0.99 ± 0.21 %ID/g
- tissue uptake at 4 h [7, 14]: 5.9 ± 0.4 %ID/g
- tissue uptake at 24 h [7, 14]: 5.9 ± 1.2 %ID/g
- tissue uptake at 4 h [7, 15]: 3.9 ± 0.3 %ID/g
- tissue uptake at 24 h [7, 15]: 3.1 ± 0.4 %ID/g
- tissue uptake at 4 h [7, 16]: 6.2 ± 0.7 %ID/g
- tissue uptake at 24 h [7, 16]: 4.3 ± 0.5 %ID/g
- tissue uptake at 4 h [7, 17]: 1 ± 0.1 %ID/g
- tissue uptake at 24 h [7, 17]: 0.73 ± 0.04 %ID/g
- tissue uptake at 4 h [7, 18]: 1.5 ± 0.1 %ID/g
- tissue uptake at 24 h [7, 18]: 1 ± 0.1 %ID/g
- tissue uptake at 4 h [7, 19]: 2.8 ± 0.2 %ID/g
- tissue uptake at 24 h [7, 19]: 2.4 ± 0.4 %ID/g
- tissue uptake at 4 h [7, 20]: 1.9 ± 0.1 %ID/g
- tissue uptake at 24 h [7, 20]: 2.3 ± 0.3 %ID/g
- tissue uptake at 4 h [7, 21]: 1.5 ± 0.1 %ID/g
- tissue uptake at 24 h [7, 21]: 1 ± 0.1 %ID/g
Structure (SMILES): CC(C)C[C@H](NC(=O)[C@H](Cc1ccc(O)cc1)NC(=O)[C@@H](CCCNC(=N)N)NC(=O)[C@@H](CO)NC(=O)[C@H](Cc1ccccc1)NC(=O)[C@H](CC1CCCCC1)NC(=O)[C@H](CC(=O)O)NC(=O)[C@H](CCCCNC(=O)CCCc1ccc(I)cc1)NC(=O)[C@@H](N)CCCCNC(=O)CN1CCN(CC(=O)O)CCN(CC(=O)O)CCN(CC(=O)O)CC1)C(=O)N[C@@H](Cc1c[nH]c2ccccc12)C(=O)N[C@@H](CO)C(N)=O [[^177Lu]Lu-uPAR-04, metal not drawn]

- fold lower albumin-binding affinity than [177Lu]Lu-uPAR-01 ([1]; human blood plasma, ultrafiltration): 2.4 fold
- Relative albumin-binding affinity, human blood plasma [1]: 0.43
- remaining at 1 h, 10 MBq/200 µL [2]: 99 ± 1%
- remaining at 24 h, 10 MBq/200 µL [2]: 98 ± 2%
- remaining at 4 h, 10 MBq/200 µL [2]: 98 ± 2%
- radiolytic stability, % intact radiopeptide ([3]; 1 h): 99 ± 2%
- radiolytic stability, % intact radiopeptide ([3]; 4 h): 97 ± 1%
- radiolytic stability after 24 h, intact radiopeptide [%] [3]: 93 ± 1%
- remaining at 1 h, 10 MBq/200 µL [4]: 99 ± 1%
- remaining at 24 h, 10 MBq/200 µL [4]: 99 ± 1%
- remaining at 4 h, 10 MBq/200 µL [4]: 99 ± 1%
- logD [5]: 0.24 ± 0.09
- Kd (human uPAR): 0.01 ± 0.005 µM
- Xenograft-to-blood ratio ([6]; 4 h p.i.): 0.42 ± 0.07
- Xenograft-to-kidney ratio ([6]; 4 h p.i.): 1.4 ± 0.2
- Xenograft-to-liver ratio ([6]; 4 h p.i.): 0.98 ± 0.10
- Xenograft-to-blood ratio ([6]; 24 h p.i.): 0.66 ± 0.12
- Xenograft-to-kidney ratio ([6]; 24 h p.i.): 1.9 ± 0.3
- Xenograft-to-liver ratio ([6]; 24 h p.i.): 2.9 ± 0.3
- tissue uptake at 24 h ([7]; CD1/nude (Crl:CD1-Foxn nu), HEK-uPAR xenograft, HEK-uPAR xgft): 3.1 ± 0.7 %ID/g
- tissue uptake at 4 h [7, 8]: 5.1 ± 1 %ID/g
- tissue uptake at 4 h [7, 9]: 12 ± 1 %ID/g
- tissue uptake at 24 h [7, 9]: 4.6 ± 0.3 %ID/g
- tissue uptake at 4 h [7, 10]: 1.1 ± 0.1 %ID/g
- tissue uptake at 24 h [7, 10]: 0.67 ± 0.06 %ID/g
- tissue uptake at 4 h [7, 11]: 0.27 ± 0.01 %ID/g
- tissue uptake at 24 h [7, 11]: 0.11 ± 0.02 %ID/g
- tissue uptake at 4 h [7, 12]: 4.1 ± 0.2 %ID/g
- tissue uptake at 24 h [7, 12]: 1.6 ± 0.1 %ID/g
- tissue uptake at 4 h [7, 13]: 1.6 ± 0.1 %ID/g
- tissue uptake at 24 h [7, 13]: 0.73 ± 0.07 %ID/g
- tissue uptake at 4 h [7, 14]: 3.6 ± 0.2 %ID/g
- tissue uptake at 24 h [7, 14]: 1.6 ± 0.1 %ID/g
- tissue uptake at 4 h [7, 15]: 5.2 ± 0.6 %ID/g
- tissue uptake at 24 h [7, 15]: 1.1 ± 0.1 %ID/g
- tissue uptake at 4 h [7, 16]: 7 ± 0.5 %ID/g
- tissue uptake at 24 h [7, 16]: 2.6 ± 0.4 %ID/g
- tissue uptake at 4 h [7, 17]: 1.1 ± 0.1 %ID/g
- tissue uptake at 24 h [7, 17]: 0.41 ± 0.04 %ID/g
- tissue uptake at 4 h [7, 18]: 1.4 ± 0.2 %ID/g
- tissue uptake at 24 h [7, 18]: 0.62 ± 0.07 %ID/g
- tissue uptake at 4 h [7, 19]: 2.5 ± 0.3 %ID/g
- tissue uptake at 24 h [7, 19]: 1.1 ± 0.1 %ID/g
- tissue uptake at 4 h [7, 20]: 1.5 ± 0.1 %ID/g
- tissue uptake at 24 h [7, 20]: 0.82 ± 0.1 %ID/g
- tissue uptake at 4 h [7, 21]: 1.3 ± 0.1 %ID/g
- tissue uptake at 24 h [7, 21]: 0.64 ± 0.01 %ID/g
Structure (SMILES): CC(C)C[C@H](NC(=O)[C@H](Cc1ccc(O)cc1)NC(=O)[C@@H](CCCNC(=N)N)NC(=O)[C@@H](CO)NC(=O)[C@H](Cc1ccccc1)NC(=O)[C@H](CC1CCCCC1)NC(=O)[C@H](CC(=O)O)NC(=O)CCOCCOCCOCCOCCNC(=O)[C@H](CCCCNC(=O)CCCc1ccc(I)cc1)NC(=O)CN1CCN(CC(=O)O)CCN(CC(=O)O)CCN(CC(=O)O)CC1)C(=O)N[C@@H](Cc1c[nH]c2ccccc12)C(=O)N[C@@H](CO)C(N)=O [[^177Lu]Lu-uPAR-05, metal not drawn]
